Experiments:
Type in all cases: ADME
[1] = Drug uptake in C57BL/6J mouse neuronal cytosol at 100 uM after 1 min by confocal microscopy co-treated with 20 uM 2-TRLG
[2] = Drug uptake in C57BL/6J mouse neuronal cytosol at 20 uM after 1 min by confocal microscopy co-treated with 100 uM 2-NBDLG
[3] = Drug uptake in C57BL/6J mouse neuronal cytosol at 20 uM after 1 min by confocal microscopy co-treated with 100 uM 2-NBDG

| Drug uptake [2] | Drug uptake [3] | Structure (SMILES) | Drug uptake [1] |
| --- | --- | --- | --- |
|  |  | O=[N+]([O-])c1ccc(N[C@@H]2C(O)O[C@@H](CO)[C@H](O)[C@H]2O)c2nonc12 (stereo partly specified) | Not Active |
| Active | Not Active | O=S(=O)([O-])c1cc(S(=O)(=O)N[C@@H]2C(O)O[C@@H](CO)[C@H](O)[C@H]2O)ccc1C1=c2cc3c4c(c2Oc2c1cc1c5c2CCCN5CCC1)CCC[N+]=4CCC3 (stereo partly specified) |  |
|  |  | O=[N+]([O-])c1ccc(N[C@H]2C(O)O[C@H](CO)[C@@H](O)[C@@H]2O)c2nonc12 (stereo partly specified) | Active |
| Active | Not Active | O=S(=O)([O-])c1ccc(C2=c3cc4c5c(c3Oc3c2cc2c6c3CCCN6CCC2)CCC[N+]=5CCC4)c(S(=O)(=O)N[C@@H]2C(O)O[C@@H](CO)[C@H](O)[C@H]2O)c1 (stereo partly specified) |  |

Reference: ChEMBL document CHEMBL1795315, “Syntheses of 2-NBDG analogues for monitoring stereoselective uptake of D-glucose” (Bioorg Med Chem Lett, 2011)
